Consider seven compounds from US20230381327A1, “REACTIVE CONJUGATES” (DEBIOPHARM RESEARCH & MANUFACTURING S.A., priority 2020, published 2023).

One test addresses T1, trastuzumab (Homo sapiens, UniProt P01857, D239E/L241M).
T1 construct: purchased Roche Herceptin®
The test is described as follows: Preparation of trastuzumab-payload conjugates in solution, HRMS analysis (DoC, Fc/F(ab)2 selectivity). The conditions noted are these: 10 eq of peptide-payload conjugate. Here is the method: Deglycosylation of the conjugates was achieved by incubating 1 unit of Endo S per μg of conjugate in the formulation buffer (37° C.-1 hour).
The average Degree of Conjugation (DoC) values were calculated using the HRMS data and the Equation 1 (Eq. 1) below.
where I(DoCk) is the relative peak intensity of conjugates with k add-on molecules per antibody.
After payload conjugation, the reaction buffer was diluted with 64 μL of 0.1 M glycine pH 2.5. The antibody conjugate was then purified by gel filtration chromatography using a pre-equilibrated with 0.1 M glycine pH 2.5 Bio-spin P-30 Column (bed height: 3.7 cm, overall length: 5 cm; available from Bio-Rad, USA) and then eluted with 0.1M glycine pH 2.5. The purified antibody conjugate fractions were neutralized with 1M PBS pH 8.5 (10 μL).
(§1) The conjugation of the payload moiety to trastuzumab was evaluated by HRMS analysis (as described above). The payload loading ratios (selectivity) between Fc and F(ab)2 were evaluated by digesting the conjugates with GingisKhan protease (1 unit per μg of antibody conjugate in the presence of 2 mM cysteine, 0.1M Tris, pH 8.0 for 1 hour at 37° C.), and subsequent HRMS analysis (as described above). The Degree of Conjugation (DoC) of the trastuzumab-payload conjugates was evaluated based on the results of the HRMS analysis (as described above).
(§2) DoC Fc=DoC−DoC F(ab)2, Selectivity Fc/F(ab)2=(DoC−DoC F(ab)2)/Doc (Fab)2

The target in a further test is T2, rituximab (Homo sapiens, UniProt P01857).
T2 construct: purchased Roche RITUXAN®
The test is described as follows: Antibody-payload conjugation, HRMS analysis (Example 12). Here is the method:
To prepare the trastuzumab-payload conjugates, 2 eq of reactive conjugate prepared in Examples 5-8, 10 (2.4 nmol) in DMSO (2-7% v/v in final reaction mixture) was added to a solution of trastuzumab (1 eq, 1.2 nmol; commercial trastuzumab Herceptin® available from Roche which was buffer-exchanged into phosphate-buffered saline (PBS) prior to the conjugation) diluted in 50 mM NaHCO3 pH 9.0 (20-28 μL) and the reaction mixture (36 μL) was stirred at room temperature for 2 hours.
as §1
The propensity of the reactive conjugates of the present invention to react with different antibodies was evaluated using commercially available atezolizumab, rituximab, trastuzumab emtansine, brentuximab-vedotin, aflibercept, panitumumab, pembrolizumab and Fc region only. Antibody-DOTA/FITC conjugates were prepared according to the same procedure as described in Example 11 above using peptide conjugates (indicated in Table 19) and the aforementioned antibodies.
as §2

For another test, the target named is Fc region of trastuzumab (Homo sapiens, UniProt P01857). The test is described as follows: Competitive FP binding assay against Fc-III-FAM. Here is the method:
All sample preparations were done in PBS pH 7.0 containing 0.05% Tween. Each experiment was performed in triplicate.

Residues, ends and D or L forms follow the SMILES beside them.

As for `O=C(OCCOCCNC(=S)Nc1ccc2c(c1)C(=O)OC21c2ccc(O)cc2Oc2cc(O)ccc21)Oc1ccc(C(=O)O)cc1` [Carbonate-FITC, 4-[2-[2-[(3′,6′-dihydroxy-3-oxo-spiro [isobenzofuran-1,9′-xanthene]-5-yl)carbamothioylamino]ethoxy]ethoxycarbonyloxy]benzoic acid], on trastuzumab, the DoC turned out to be 0.83, the “DoC F(ab)2” value stood at 0.54, the “DoC Fc” value turned out to be 0.29 and the “Labeled mAb (%)” value is listed as 59%. The “Selectivity Fc/F(ab)2” value at trastuzumab was determined as 0.5. In addition, at rituximab, the “DoC F(ab)2” value is listed as 0.20 and the “Selectivity Fc/F(ab)2” value is given as 3.2. On rituximab (procedure of Example 11), the DoC is on record as 0.84 and the “Labeled mAb (%)” value was found to be 59%. Moreover, the “DoC Fc” value on rituximab (some values extrapolated as DoC − DoC F(ab)2) is given as 0.64.
For `CC(=O)N[C@@H](CC(=O)O)C(=O)N[C@H]1CSSC[C@@H](C(=O)N[C@H](C(N)=O)[C@@H](C)O)NC(=O)[C@H](Cc2c[nH]c3ccccc23)NC(=O)[C@H](C(C)C)NC(=O)[C@H](CC(C)C)NC(=O)[C@H](CCC(=O)O)NC(=O)CNC(=O)[C@H](CC(C)C)NC(=O)[C@H](Cc2c[nH]cn2)NC(=O)[C@H](Cc2c[nH]c3ccccc23)NC(=O)[C@H](CCCCN)NC1=O` [Compound A3K] (HELM PEPTIDE1{[ac].D.C.K.W.H.L.G.E.L.V.W.C.T.[am]}$PEPTIDE1,PEPTIDE1,3:R3-13:R3$$$V2.0), the “binding to the Fc region of trastuzumab compared to Fc-III (in words)” value at Fc region of trastuzumab is reported as “moderate binding efficiency”.
Same read-out and setting: next, `CC(=O)N[C@@H](CC(=O)O)C(=O)N[C@H]1CSSC[C@@H](C(=O)N[C@H](C(N)=O)[C@@H](C)O)NC(=O)[C@H](Cc2c[nH]c3ccccc23)NC(=O)[C@H](C(C)C)NC(=O)[C@H](CC(C)C)NC(=O)[C@H](CCC(=O)O)NC(=O)CNC(=O)[C@H](CC(C)C)NC(=O)[C@H](CCCCN)NC(=O)[C@H](Cc2c[nH]c3ccccc23)NC(=O)[C@H](C)NC1=O` [Compound H5K] (HELM PEPTIDE1{[ac].D.C.A.W.K.L.G.E.L.V.W.C.T.[am]}$PEPTIDE1,PEPTIDE1,3:R3-13:R3$$$V2.0): “moderate binding efficiency”; `CC(=O)N[C@@H](CC(=O)O)C(=O)N[C@H]1CSSC[C@@H](C(=O)N[C@H](C(N)=O)[C@@H](C)O)NC(=O)[C@H](Cc2c[nH]c3ccccc23)NC(=O)[C@H](C(C)C)NC(=O)[C@H](CC(C)C)NC(=O)[C@H](CCC(=O)O)NC(=O)CNC(=O)[C@H](CCCCN)NC(=O)[C@H](Cc2c[nH]cn2)NC(=O)[C@H](Cc2c[nH]c3ccccc23)NC(=O)[C@H](C)NC1=O` [Compound L6K] (HELM PEPTIDE1{[ac].D.C.A.W.H.K.G.E.L.V.W.C.T.[am]}$PEPTIDE1,PEPTIDE1,3:R3-13:R3$$$V2.0): “moderate binding efficiency”; `CC(=O)N[C@@H](CC(=O)O)C(=O)N[C@H]1CSSC[C@@H](C(=O)N[C@H](C(N)=O)[C@@H](C)O)NC(=O)[C@H](Cc2c[nH]c3ccccc23)NC(=O)[C@H](CCCCN)NC(=O)[C@H](CC(C)C)NC(=O)[C@H](CCC(=O)O)NC(=O)CNC(=O)[C@H](CC(C)C)NC(=O)[C@H](Cc2c[nH]cn2)NC(=O)[C@H](Cc2c[nH]c3ccccc23)NC(=O)[C@H](C)NC1=O` [Compound V10K] (HELM PEPTIDE1{[ac].D.C.A.W.H.L.G.E.L.K.W.C.T.[am]}$PEPTIDE1,PEPTIDE1,3:R3-13:R3$$$V2.0): “moderate binding efficiency”.
Same read-out and setting: as for `CC(=O)N[C@@H](CC(=O)O)C(=O)N[C@H]1CSSC[C@@H](C(=O)N[C@H](C(N)=O)[C@@H](C)O)NC(=O)[C@H](Cc2c[nH]c3ccccc23)NC(=O)[C@H](C(C)C)NC(=O)[C@H](CC(C)C)NC(=O)[C@H](CCC(=O)O)NC(=O)CNC(=O)[C@H](CC(C)C)NC(=O)[C@H](Cc2c[nH]cn2)NC(=O)[C@H](CCCCN)NC(=O)[C@H](C)NC1=O` [Compound W4K] (HELM PEPTIDE1{[ac].D.C.A.K.H.L.G.E.L.V.W.C.T.[am]}$PEPTIDE1,PEPTIDE1,3:R3-13:R3$$$V2.0), the entry is “significant impact on peptide binding”; as for `CC(=O)N[C@@H](CC(=O)O)C(=O)N[C@H]1CSSC[C@@H](C(=O)N[C@H](C(N)=O)[C@@H](C)O)NC(=O)[C@H](CCCCN)NC(=O)[C@H](C(C)C)NC(=O)[C@H](CC(C)C)NC(=O)[C@H](CCC(=O)O)NC(=O)CNC(=O)[C@H](CC(C)C)NC(=O)[C@H](Cc2c[nH]cn2)NC(=O)[C@H](Cc2c[nH]c3ccccc23)NC(=O)[C@H](C)NC1=O` [Compound W11K] (HELM PEPTIDE1{[ac].D.C.A.W.H.L.G.E.L.V.K.C.T.[am]}$PEPTIDE1,PEPTIDE1,3:R3-13:R3$$$V2.0), “significant impact on peptide binding”.
